Measurements from patent US7282522B2, “Hydroxamic acid derivatives and the method for preparing thereof” (Amorepacific Corporation, priority 2003, dated 2007).

Experiments:
RARγ = target: T1, RARγ (Homo sapiens, UniProt P13631); assay: RARE-luciferase reporter assay in transfected CV-1 cells (affinity to retinoic acid receptor), RARγ; assay type: cell-based; conditions: treated 24 hours at final concentration 10^−4M, control group 5000
T1 construct: expressed in transfected cells; host or cells: CV-1 cells (ATCC)
T1 sequence (P13631 1-454): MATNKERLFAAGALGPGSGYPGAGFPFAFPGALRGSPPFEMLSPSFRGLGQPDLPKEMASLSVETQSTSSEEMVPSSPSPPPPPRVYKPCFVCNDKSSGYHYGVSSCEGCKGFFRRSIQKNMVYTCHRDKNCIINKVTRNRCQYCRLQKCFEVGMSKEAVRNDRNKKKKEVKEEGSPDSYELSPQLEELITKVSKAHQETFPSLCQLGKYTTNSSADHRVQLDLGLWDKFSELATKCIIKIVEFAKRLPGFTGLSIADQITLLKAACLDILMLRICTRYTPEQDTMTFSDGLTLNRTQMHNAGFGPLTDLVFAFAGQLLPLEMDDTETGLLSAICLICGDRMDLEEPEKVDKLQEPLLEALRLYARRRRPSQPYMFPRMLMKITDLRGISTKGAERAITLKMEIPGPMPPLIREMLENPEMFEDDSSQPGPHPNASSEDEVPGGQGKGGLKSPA
Outline: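 CV-1 cells in DMEM with 2.5% FBS, 5,000 per well, transfected 24 h after seeding with 10 ng pECE-RARα, pECE-RARγ, 100 ng RARE-tk-Luc reporter and 100 ng β-galactosidase vector. Read-out is RARE-driven luciferase.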

elastase = assay: Inhibition of elastase expression in human fibroblasts (ELISA kit); assay type: cell-based; conditions: 10^−4M, 24 hours, serum-free medium, relative to control group = 100
Outline: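 Elastase in fibroblast culture fluid quantified by sandwich ELISA: 3 h capture, then chromophore-conjugated secondary antibody, then colour development, stopped with 1M sulfuric acid. Absorbance read at 405 nm. Expression given as % of the untreated control absorbance, with control set to 100.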

collagenase = assay: Inhibition of collagenase expression in human fibroblasts (ELISA kit); assay type: cell-based; conditions: 10^−4M, 24 hours, serum-free medium, relative to control group = 100
Outline: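 Serum-starved human fibroblasts were treated for 24 h with 10^−4M test material in serum-free DMEM. Collagenase in the culture fluid was measured by sandwich ELISA read at 405 nm. Values are expressed as % of the untreated control (=100).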

rabbits = assay: Primary skin irritation test on animals (Draize P.I.I.); conditions: depilated back; for P.I.I. (Primary Irritation Index): 0.5 ml of 1% solution in 1,3-butylene glycol:ethanol 7:3, observed 24 or 72 hours later; for Evaluation (skin irritation): 1% solution, according to Draize's P.I.I.
white guinea pigs = assay: Phototoxicity test (UVA irradiation); conditions: for Evaluation (phototoxicity): 1%(w/v) solution, UVA 15 J/cm^2; for Phototoxic index: 50 μl of 1%(w/v) solution, UVA 320~380 nm 15 J/cm^2, observed 24, 48 and 72 hours
RARα = target: T2, RARα (Homo sapiens, UniProt P10276); assay: RARE-luciferase reporter assay in transfected CV-1 cells (affinity to retinoic acid receptor), RARα; assay type: cell-based; conditions: treated 24 hours at final concentration 10^−4M, control group 1000
T2 construct: expressed in transfected cells; host or cells: CV-1 cells (ATCC)
T2 sequence (P10276 1-462): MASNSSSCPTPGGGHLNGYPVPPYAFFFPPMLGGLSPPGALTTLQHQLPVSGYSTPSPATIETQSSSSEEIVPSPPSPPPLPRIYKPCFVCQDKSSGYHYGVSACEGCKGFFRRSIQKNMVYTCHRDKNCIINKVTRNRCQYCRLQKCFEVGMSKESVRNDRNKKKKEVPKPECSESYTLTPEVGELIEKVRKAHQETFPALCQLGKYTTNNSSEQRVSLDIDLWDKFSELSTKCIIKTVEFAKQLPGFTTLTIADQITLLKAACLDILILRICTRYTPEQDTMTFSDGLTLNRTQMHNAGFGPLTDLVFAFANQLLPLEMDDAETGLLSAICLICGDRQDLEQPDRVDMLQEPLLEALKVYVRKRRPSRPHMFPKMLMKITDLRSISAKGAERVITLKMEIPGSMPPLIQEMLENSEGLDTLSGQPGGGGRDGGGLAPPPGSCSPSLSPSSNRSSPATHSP
Outline: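 CV-1 cells co-transfected with pECE-RARα or pECE-RARγ, RARE-tk-Luc reporter and β-galactosidase vector. Starting 24 h post-transfection, cells were treated for 24 h with compounds at a final 10^−4M; luciferase reporter read-out.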

procollagen type I = assay: Effect on collagen biosynthesis (procollagen type I ELISA) in human fibroblasts; assay type: cell-based; conditions: 10^−4M, 24 hours, serum-free medium, relative to control group = 100
Description: Human fibroblasts were seeded into 24-well plate at 1×10^5 cells per well and then cultured to 90% of growth.
For each supernatant, procollagen production was measured with procollagen type I ELISA kit.

Structure (SMILES): CN(C(=O)c1ccc(C(=O)NO)cc1)c1ccc(C(C)(C)C)cc1 [Example 52, [4-(N-hydroxycarbamoyl)phenyl]-N-methyl-N-[4-tert-butylphenyl]carboxamide]
- Luciferase activity RARγ (RARγ): 12130
- Elastase expression (%) (elastase): 87%
- Collagenase expression (%) (collagenase): 77%
- P.I.I. (Primary Irritation Index) (rabbits): 0.412
- Evaluation (skin irritation) (rabbits): No irritation
- Evaluation (phototoxicity) (white guinea pigs): No phototoxicity (lower value than 0.5, criterion value to be estimated as no phototoxicity)
- Phototoxic index (white guinea pigs): 0
- Luciferase activity RARα (RARα): 12400
- Collagen biosynthesis (%) (procollagen type I): 127%

Structure (SMILES): CCCc1ccc(NC(=O)c2ccc(C(=O)NO)cc2)cc1 [Example 38, [4-(N-hydroxycarbamoyl)phenyl]-N-[4-propylphenyl]carboxyamide]
- Luciferase activity RARγ (RARγ): 10400
- Elastase expression (%) (elastase): 69%
- Collagenase expression (%) (collagenase): 87%
- P.I.I. (Primary Irritation Index) (rabbits): 0.567
- Evaluation (skin irritation) (rabbits): No irritation
- Evaluation (phototoxicity) (white guinea pigs): No phototoxicity (lower value than 0.5, criterion value to be estimated as no phototoxicity)
- Phototoxic index (white guinea pigs): 0
- Luciferase activity RARα (RARα): 17500
- Collagen biosynthesis (%) (procollagen type I): 109%

Structure (SMILES): CCCc1ccc(C(=O)Nc2ccc(C(=O)NO)cc2)cc1 [Example 5, N-[4-(N-hydroxycarbamoyl)phenyl][4-propylphenyl]carboxyamide]
- Luciferase activity RARγ (RARγ): 11000
- Elastase expression (%) (elastase): 78%
- Collagenase expression (%) (collagenase): 79%
- P.I.I. (Primary Irritation Index) (rabbits): 0.375
- Evaluation (skin irritation) (rabbits): No irritation
- Evaluation (phototoxicity) (white guinea pigs): No phototoxicity (lower value than 0.5, criterion value to be estimated as no phototoxicity)
- Phototoxic index (white guinea pigs): 0
- Luciferase activity RARα (RARα): 18000
- Collagen biosynthesis (%) (procollagen type I): 125%

Structure (SMILES): CC(C)c1ccc(NC(=O)c2ccc(C(=O)NO)cc2)cc1 [Example 39, [4-(N-hydroxycarbamoyl)phenyl]-N-[4-isopropylphenyl]carboxyamide]
- Luciferase activity RARγ (RARγ): 10100
- Elastase expression (%) (elastase): 87%
- Collagenase expression (%) (collagenase): 78%
- P.I.I. (Primary Irritation Index) (rabbits): 0.145
- Evaluation (skin irritation) (rabbits): No irritation
- Evaluation (phototoxicity) (white guinea pigs): No phototoxicity (lower value than 0.5, criterion value to be estimated as no phototoxicity)
- Phototoxic index (white guinea pigs): 0
- Luciferase activity RARα (RARα): 18700
- Collagen biosynthesis (%) (procollagen type I): 105%

Structure (SMILES): O=C(NO)c1ccc(C(=O)NC23CC4CC(CC(C4)C2)C3)cc1 [Example 43, [4-(N-hydroxycarbamoyl)phenyl]-N-adamantyl carboxyamide]
- Luciferase activity RARγ (RARγ): 10600
- Elastase expression (%) (elastase): 70%
- Collagenase expression (%) (collagenase): 77%
- P.I.I. (Primary Irritation Index) (rabbits): 0.456
- Evaluation (skin irritation) (rabbits): No irritation
- Evaluation (phototoxicity) (white guinea pigs): No phototoxicity (lower value than 0.5, criterion value to be estimated as no phototoxicity)
- Phototoxic index (white guinea pigs): 0
- Luciferase activity RARα (RARα): 18900
- Collagen biosynthesis (%) (procollagen type I): 130%

Structure (SMILES): CC(C)c1ccc(C(=O)Nc2ccc(C(=O)NO)cc2)cc1 [Example 6, N-[4-(N-hydroxycarbamoyl)phenyl][4-isopropylphenyl]carboxyamide]
- Luciferase activity RARγ (RARγ): 12300
- Elastase expression (%) (elastase): 79%
- Collagenase expression (%) (collagenase): 85%
- P.I.I. (Primary Irritation Index) (rabbits): 0.315
- Evaluation (skin irritation) (rabbits): No irritation
- Evaluation (phototoxicity) (white guinea pigs): No phototoxicity (lower value than 0.5, criterion value to be estimated as no phototoxicity)
- Phototoxic index (white guinea pigs): 0
- Luciferase activity RARα (RARα): 14500
- Collagen biosynthesis (%) (procollagen type I): 124%

Structure (SMILES): CC(C)c1ccc(N(C)C(=O)c2ccc(C(=O)NO)cc2)cc1 [Example 50, [4-(N-hydroxycarbamoyl)phenyl]-N-methyl-N-[4-isopropylphenyl]carboxyamide]
- Luciferase activity RARγ (RARγ): 11212
- Elastase expression (%) (elastase): 78%
- Collagenase expression (%) (collagenase): 80%
- P.I.I. (Primary Irritation Index) (rabbits): 0.234
- Evaluation (skin irritation) (rabbits): No irritation
- Evaluation (phototoxicity) (white guinea pigs): No phototoxicity (lower value than 0.5, criterion value to be estimated as no phototoxicity)
- Phototoxic index (white guinea pigs): 0
- Luciferase activity RARα (RARα): 12300
- Collagen biosynthesis (%) (procollagen type I): 110%

Structure (SMILES): CCCc1ccc(C(=O)N(C)c2ccc(C(=O)NO)cc2)cc1 [Example 16]
- Luciferase activity RARγ (RARγ): 11200
- Elastase expression (%) (elastase): 77%
- Collagenase expression (%) (collagenase): 80%
- P.I.I. (Primary Irritation Index) (rabbits): 0.567
- Evaluation (skin irritation) (rabbits): No irritation
- Evaluation (phototoxicity) (white guinea pigs): No phototoxicity (lower value than 0.5, criterion value to be estimated as no phototoxicity)
- Phototoxic index (white guinea pigs): 0
- Luciferase activity RARα (RARα): 12300
- Collagen biosynthesis (%) (procollagen type I): 120%

Structure (SMILES): O=C(Cc1ccc(NC(=O)C23CC4CC(CC(C4)C2)C3)cc1)NO [Example 32, N-[4-(N-hydroxycarbamoylmethyl)phenyl]adamantyl carboxyamide]
- Luciferase activity RARγ (RARγ): 10000
- Elastase expression (%) (elastase): 74%
- Collagenase expression (%) (collagenase): 79%
- P.I.I. (Primary Irritation Index) (rabbits): 0.375
- Evaluation (skin irritation) (rabbits): No irritation
- Evaluation (phototoxicity) (white guinea pigs): No phototoxicity (lower value than 0.5, criterion value to be estimated as no phototoxicity)
- Phototoxic index (white guinea pigs): 0
- Luciferase activity RARα (RARα): 18000
- Collagen biosynthesis (%) (procollagen type I): 125%

Structure (SMILES): CCc1ccc(C(=O)Nc2ccc(CC(=O)NO)cc2)cc1 [Example 26, N-[4-(N-hydroxycarbamoylmethyl)phenyl][4-ethylphenyl]carboxyamide]
- Luciferase activity RARγ (RARγ): 11200
- Elastase expression (%) (elastase): 86%
- Collagenase expression (%) (collagenase): 78%
- P.I.I. (Primary Irritation Index) (rabbits): 0.321
- Evaluation (skin irritation) (rabbits): No irritation
- Evaluation (phototoxicity) (white guinea pigs): No phototoxicity (lower value than 0.5, criterion value to be estimated as no phototoxicity)
- Phototoxic index (white guinea pigs): 0
- Luciferase activity RARα (RARα): 17500
- Collagen biosynthesis (%) (procollagen type I): 123%

Structure (SMILES): CN(C(=O)C12CC3CC(CC(C3)C1)C2)c1ccc(C(=O)NO)cc1 [Example 21, N-[4-(N-hydroxycarbamoyl)phenyl]adamantyl-N-methylcarboxyamide]
- Luciferase activity RARγ (RARγ): 11200
- Elastase expression (%) (elastase): 78%
- Collagenase expression (%) (collagenase): 69%
- P.I.I. (Primary Irritation Index) (rabbits): 0.345
- Evaluation (skin irritation) (rabbits): No irritation
- Evaluation (phototoxicity) (white guinea pigs): No phototoxicity (lower value than 0.5, criterion value to be estimated as no phototoxicity)
- Phototoxic index (white guinea pigs): 0
- Luciferase activity RARα (RARα): 12500
- Collagen biosynthesis (%) (procollagen type I): 118%

Structure (SMILES): CN(O)C(=O)c1ccc(NC(=O)C23CC4CC(CC(C4)C2)C3)cc1 [Example 11, adamantyl-N-[4-(N-hydroxy-N-methylcarbamoyl)phenyl]carboxyamide]
- Luciferase activity RARγ (RARγ): 10000
- Elastase expression (%) (elastase): 65%
- Collagenase expression (%) (collagenase): 81%
- P.I.I. (Primary Irritation Index) (rabbits): 0.375
- Evaluation (skin irritation) (rabbits): No irritation
- Evaluation (phototoxicity) (white guinea pigs): No phototoxicity (lower value than 0.5, criterion value to be estimated as no phototoxicity)
- Phototoxic index (white guinea pigs): 0
- Luciferase activity RARα (RARα): 11600
- Collagen biosynthesis (%) (procollagen type I): 110%
